Results: ChEMBL document CHEMBL4602694, “Suppression of Drug-Resistant Non-Small-Cell Lung Cancer with Inhibitors Targeting Minichromosomal Maintenance Protein” (J Med Chem, 2020)
Activity calls are given as the source filed them. The calls are words filed in the database; no cut-off is given here.

Columns and labels:
[1] = biological target: DNA replication licensing factor MCM7 (Homo sapiens) (UniProt P33993); assay: Induction of ubiquitination of MCM7 in human NCI-H1975 cells at 140 nM in presence of MG132 incubated for 48 hrs followed by MG132 addition and measured after 12 hrs by immunoblot analysis; type: cell-based
Chain of DNA replication licensing factor MCM7 (Homo sapiens) (P33993 whole entry): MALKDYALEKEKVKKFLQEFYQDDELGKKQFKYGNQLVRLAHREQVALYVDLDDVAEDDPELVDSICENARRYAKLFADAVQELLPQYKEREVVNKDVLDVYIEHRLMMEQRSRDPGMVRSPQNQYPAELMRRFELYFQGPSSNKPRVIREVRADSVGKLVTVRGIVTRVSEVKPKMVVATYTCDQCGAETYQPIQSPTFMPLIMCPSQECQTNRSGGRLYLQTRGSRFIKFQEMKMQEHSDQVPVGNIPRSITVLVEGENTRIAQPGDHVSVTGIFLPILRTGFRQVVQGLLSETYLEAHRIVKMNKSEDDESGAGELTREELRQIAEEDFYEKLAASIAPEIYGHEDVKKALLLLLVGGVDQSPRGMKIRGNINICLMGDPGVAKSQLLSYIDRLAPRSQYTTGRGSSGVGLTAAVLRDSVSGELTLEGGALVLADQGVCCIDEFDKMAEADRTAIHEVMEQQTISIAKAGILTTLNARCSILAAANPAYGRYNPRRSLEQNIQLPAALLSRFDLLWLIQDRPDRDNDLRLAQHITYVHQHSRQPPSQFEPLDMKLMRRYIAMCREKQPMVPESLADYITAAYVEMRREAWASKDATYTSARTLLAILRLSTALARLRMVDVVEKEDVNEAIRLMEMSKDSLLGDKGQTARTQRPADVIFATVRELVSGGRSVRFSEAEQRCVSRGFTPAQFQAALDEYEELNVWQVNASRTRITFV

[2] = tested on: DNA replication licensing factor MCM2 (Homo sapiens), P49736 [Q341A]; assay: Induction of ubiquitination of FLAG-tagged MCM2 Q341A mutant (unknown origin) expressed in human NCI-H1975 cells incubated for 24 hrs by magnetic beads technique based immunoblot analysis; type: cell-based
Chain of DNA replication licensing factor MCM2 (Homo sapiens), P49736 [Q341A] (P49736 whole entry Q341A): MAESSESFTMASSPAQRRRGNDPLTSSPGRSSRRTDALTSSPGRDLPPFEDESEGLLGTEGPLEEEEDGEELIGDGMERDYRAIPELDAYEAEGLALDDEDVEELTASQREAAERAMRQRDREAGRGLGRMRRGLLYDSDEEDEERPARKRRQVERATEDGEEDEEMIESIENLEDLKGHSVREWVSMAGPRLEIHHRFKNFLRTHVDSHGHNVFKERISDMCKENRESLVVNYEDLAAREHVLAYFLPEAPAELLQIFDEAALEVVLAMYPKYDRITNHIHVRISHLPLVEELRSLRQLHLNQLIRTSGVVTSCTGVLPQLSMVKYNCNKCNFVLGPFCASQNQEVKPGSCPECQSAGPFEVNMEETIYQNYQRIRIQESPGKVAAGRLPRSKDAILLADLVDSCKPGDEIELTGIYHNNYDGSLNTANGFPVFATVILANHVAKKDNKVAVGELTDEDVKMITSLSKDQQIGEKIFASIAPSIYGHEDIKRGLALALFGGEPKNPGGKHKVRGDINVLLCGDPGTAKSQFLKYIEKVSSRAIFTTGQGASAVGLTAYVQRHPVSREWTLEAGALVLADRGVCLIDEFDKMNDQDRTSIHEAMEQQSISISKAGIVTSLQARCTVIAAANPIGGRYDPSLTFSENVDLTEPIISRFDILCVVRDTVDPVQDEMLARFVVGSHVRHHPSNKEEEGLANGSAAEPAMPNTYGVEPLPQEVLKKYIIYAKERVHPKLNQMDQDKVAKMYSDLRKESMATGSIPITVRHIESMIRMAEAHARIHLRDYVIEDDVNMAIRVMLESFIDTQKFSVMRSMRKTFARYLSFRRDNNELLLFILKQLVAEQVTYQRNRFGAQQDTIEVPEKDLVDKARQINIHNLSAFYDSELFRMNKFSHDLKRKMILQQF

[3] = biological target: DNA replication licensing factor MCM7 (Homo sapiens) (UniProt P33993); assay: Induction of ubiquitination of MCM7 in human NCI-H1975 cells incubated for 24 hrs by immunoblot analysis; type: cell-based
[4] = Selectivity index, ratio of IC50 for human bronchial epithelial cells to IC50 for human PC9 cells; type: toxicity; settings: human bronchial epithelial cells versus PC9 cells, read-out: Ratio IC50
[5] = biological target: DNA replication licensing factor MCM7 (Homo sapiens) (UniProt P33993); assay: Induction of ubiquitination of MCM7 in human NCI-H1975 cells incubated for 72 hrs by immunoblot analysis (reference value: 1); type: cell-based
[6] = biological target: T1, DNA replication licensing factor MCM5 (Homo sapiens) (UniProt P33992); assay: Induction of ubiquitination of MCM5 in human NCI-H1975 cells incubated for 24 hrs by immunoblot analysis (reference value: 1); type: cell-based
T1 sequence (whole entry): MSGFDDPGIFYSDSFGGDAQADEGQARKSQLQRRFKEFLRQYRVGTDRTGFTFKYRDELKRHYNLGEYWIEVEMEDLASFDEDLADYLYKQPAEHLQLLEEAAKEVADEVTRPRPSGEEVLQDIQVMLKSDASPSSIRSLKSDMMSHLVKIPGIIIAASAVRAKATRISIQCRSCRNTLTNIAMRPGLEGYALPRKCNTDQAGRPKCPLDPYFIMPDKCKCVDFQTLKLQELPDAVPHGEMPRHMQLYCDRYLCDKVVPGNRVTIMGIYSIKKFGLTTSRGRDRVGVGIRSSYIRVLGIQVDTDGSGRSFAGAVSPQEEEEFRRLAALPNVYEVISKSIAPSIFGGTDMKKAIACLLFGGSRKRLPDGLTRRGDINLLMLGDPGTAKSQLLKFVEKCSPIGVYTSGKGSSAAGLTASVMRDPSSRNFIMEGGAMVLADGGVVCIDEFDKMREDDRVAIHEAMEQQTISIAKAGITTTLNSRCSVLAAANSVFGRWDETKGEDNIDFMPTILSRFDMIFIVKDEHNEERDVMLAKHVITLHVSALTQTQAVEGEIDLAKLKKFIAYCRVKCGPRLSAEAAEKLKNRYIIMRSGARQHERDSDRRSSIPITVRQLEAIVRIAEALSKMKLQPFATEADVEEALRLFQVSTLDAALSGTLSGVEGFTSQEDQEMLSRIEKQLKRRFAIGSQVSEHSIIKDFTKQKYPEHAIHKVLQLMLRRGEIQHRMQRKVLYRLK

[7] = biological target: DNA replication licensing factor MCM2 (Homo sapiens) (UniProt P49736); assay: Induction of ubiquitination of MCM2 in human NCI-H1975 cells incubated for 24 hrs by immunoblot analysis (reference value: 1); type: cell-based
Chain of DNA replication licensing factor MCM2 (Homo sapiens) (P49736 whole entry): as the sequence (P49736 whole entry Q341A) above, with A341Q counted along it

[8] = biological target: T1, DNA replication licensing factor MCM5 (Homo sapiens); assay: Induction of ubiquitination of MCM5 in human NCI-H1975 cells incubated for 72 hrs by immunoblot analysis (reference value: 1); type: cell-based
[9] = biological target: T2, DNA replication licensing factor MCM6 (Homo sapiens) (UniProt Q14566); assay: Induction of ubiquitination of MCM6 in human NCI-H1975 cells incubated for 24 hrs by immunoblot analysis; type: cell-based
T2 sequence (whole entry): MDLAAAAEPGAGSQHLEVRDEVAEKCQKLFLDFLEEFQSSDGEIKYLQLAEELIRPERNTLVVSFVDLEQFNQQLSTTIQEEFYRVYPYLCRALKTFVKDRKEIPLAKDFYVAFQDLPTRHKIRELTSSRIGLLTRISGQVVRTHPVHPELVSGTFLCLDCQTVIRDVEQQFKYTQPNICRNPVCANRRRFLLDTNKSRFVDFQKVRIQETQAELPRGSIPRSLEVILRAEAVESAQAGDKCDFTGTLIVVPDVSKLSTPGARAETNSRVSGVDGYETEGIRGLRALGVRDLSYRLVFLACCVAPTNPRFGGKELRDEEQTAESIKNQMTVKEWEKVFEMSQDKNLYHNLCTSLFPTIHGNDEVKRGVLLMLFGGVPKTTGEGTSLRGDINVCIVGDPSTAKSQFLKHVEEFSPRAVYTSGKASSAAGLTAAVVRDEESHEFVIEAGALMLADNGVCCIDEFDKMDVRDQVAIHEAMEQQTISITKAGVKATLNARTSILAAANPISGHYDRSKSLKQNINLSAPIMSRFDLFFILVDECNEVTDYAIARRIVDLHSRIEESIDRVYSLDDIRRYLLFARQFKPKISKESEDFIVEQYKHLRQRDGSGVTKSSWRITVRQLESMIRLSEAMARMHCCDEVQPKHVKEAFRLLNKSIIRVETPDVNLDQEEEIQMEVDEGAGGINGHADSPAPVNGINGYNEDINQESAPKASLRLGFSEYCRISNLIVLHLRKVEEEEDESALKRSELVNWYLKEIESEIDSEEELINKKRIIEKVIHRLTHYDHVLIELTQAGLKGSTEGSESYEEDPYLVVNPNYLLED

[10] = tested on: DNA replication licensing factor MCM2 (Homo sapiens), P49736 [Q341A]; assay: Induction of ubiquitination of FLAG-tagged MCM2 Q341A mutant (unknown origin) expressed in human 293T cells incubated for 4 hrs by magnetic beads technique based immunoblot analysis; type: cell-based; settings: HEK-293T
[11] = Antiproliferative activity against human PC9IR cells assessed as reduction in cell viability incubated for 72 hrs by SRB assay; type: functional, cell-based
CL1-0 = assay: Antiproliferative activity against human CL1-0 cells assessed as reduction in cell viability incubated for 72 hrs by SRB assay; type: functional, cell-based; settings: CL1-0, 72 h
NCI-H1975 [12] = assay: Cell cycle arrest in human NCI-H1975 cells assessed as accumulation in S phase at 140 nM incubated for 72 hrs by propidium iodide base flow cytometry analysis (reference value: 2 %); type: functional
NCI-H1975 [13] = assay: Antitumor activity against human NCI-H1975 cells xenografted in athymic nude BALB/c mouse assessed as tumor growth inhibition at 4 mg/kg, ip administered for 4 weeks relative to control; type: functional; settings: 672 h, read-out: TGI
PC-9 = assay: Antiproliferative activity against human PC9 cells assessed as reduction in cell viability incubated for 72 hrs by SRB assay; type: functional, cell-based; settings: PC-9, 72 h

Activity [1]: Active
Activity [2]: inactive
Activity [3]: Dose-dependent effect
Activity [5]: 0.4
Activity [6]: 0.8
Activity [7]: 0.7
Activity [8]: 0.8
Activity [9]: Dose-dependent effect
Activity [10]: Active
IC50 (PC-9): < 0.1 µM
SMILES: Cc1oc2c(c1C(=O)NCCCn1ccnc1)C(=O)c1ccccc1C2=O
selectivity ratio [4]: > 10
IC50 [11]: < 0.1 µM
IC50 (CL1-0): < 0.1 µM
Activity (NCI-H1975 [12]): 18%
inhibition in vivo at 4 mg/kg (NCI-H1975 [13]): 59%
